Results: patent US20250368666A1, “INDAZOLE COMPOUNDS” (TYRA BIOSCIENCES, INC., priority 2022, published 2025)

What was measured:
[1] = biological target: T1, FGFR3 (Homo sapiens, UniProt P22607); test: Kinase binding assay (kinase-tagged T7 phage, affinity beads, qPCR), Kd; settings: read-out: FGFR3 (Kd nM)
T1 construct: made in house; host or cells: E. coli (BL21-derived), T7 phage
Method in brief: (§1)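 T7 phage displaying each kinase, grown in a BL21-derived E. coli host at 32° C until lysis, competed with test compound for biotinylated ligand immobilised on streptavidin beads. Bead-bound kinase was eluted and quantified by qPCR. Kd came from an 11-point 3-fold dilution series fitted to the Hill equation with slope fixed at −1.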

[2] = biological target: T2, FGFR1 (Homo sapiens, UniProt P11362); test: as above; settings: read-out: FGFR1 (Kd nM)
T2 construct: made in house; host or cells: E. coli (BL21-derived), T7 phage
Method in brief: as §1

[3] = biological target: T3, FGFR3 (V555M) (Homo sapiens, UniProt P22607, V555M); test: as above; settings: V555M mutant; read-out: FGFR3 (V555M) (Kd nM)
T3 construct: made in house; host or cells: E. coli (BL21-derived), T7 phage
Method in brief: as §1

[4] = biological target: T4, FGFR4 (Homo sapiens, UniProt P22455); test: as above; settings: read-out: FGFR4 (Kd nM)
T4 construct: made in house; host or cells: E. coli (BL21-derived), T7 phage
Method in brief: as §1

[5] = biological target: T5, FGFR2 (Homo sapiens, UniProt P21802); test: as above; settings: read-out: FGFR2 (Kd nM)
T5 construct: made in house; host or cells: E. coli (BL21-derived), T7 phage
Method in brief: as §1

[6] = tested on: KATO-III cell line (FGFR2 amplification); test: Cancer cell line cell viability assay (Cell Titer-Glo), 72 hr; assay type: cell-based; settings: Homo sapiens, KATO III
Method in brief: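 Luminescent ATP read-out (Cell Titer-Glo 2.0) after compound exposure, normalised to DMSO-only wells. Dosing: 9 concentrations, 4-fold steps, top 3 μM, triplicates. IC50 derived by log(inhibitor) vs. response 4-parameter fit.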

[7] = tested on: KG-1 cell line (FGFR 1-fusion); test: as above; assay type: cell-based; settings: Homo sapiens, KG-1, KG-1 cell line (FGFR1-fusion)
Method in brief: (§2)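 ATP-based luminescence (Cell Titer-Glo 2.0) measured viability after 72 h (KG-1, RT112/84) or 120 h (MDA-MB-453, HuH7) compound exposure. Dosing was nine 4-fold steps starting at 3 μM, in triplicate, on overnight-plated cells. IC50 came from a variable-slope 4-parameter fit of % DMSO control.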

[8] = tested on: RT112/84 cell line (FGFR3-fusion); test: as above; assay type: cell-based; settings: Homo sapiens, RT112/84, RT112/84 cell line (FGFR3-fusion)
Method in brief: as §2

T1 sequence (P22607 23-806): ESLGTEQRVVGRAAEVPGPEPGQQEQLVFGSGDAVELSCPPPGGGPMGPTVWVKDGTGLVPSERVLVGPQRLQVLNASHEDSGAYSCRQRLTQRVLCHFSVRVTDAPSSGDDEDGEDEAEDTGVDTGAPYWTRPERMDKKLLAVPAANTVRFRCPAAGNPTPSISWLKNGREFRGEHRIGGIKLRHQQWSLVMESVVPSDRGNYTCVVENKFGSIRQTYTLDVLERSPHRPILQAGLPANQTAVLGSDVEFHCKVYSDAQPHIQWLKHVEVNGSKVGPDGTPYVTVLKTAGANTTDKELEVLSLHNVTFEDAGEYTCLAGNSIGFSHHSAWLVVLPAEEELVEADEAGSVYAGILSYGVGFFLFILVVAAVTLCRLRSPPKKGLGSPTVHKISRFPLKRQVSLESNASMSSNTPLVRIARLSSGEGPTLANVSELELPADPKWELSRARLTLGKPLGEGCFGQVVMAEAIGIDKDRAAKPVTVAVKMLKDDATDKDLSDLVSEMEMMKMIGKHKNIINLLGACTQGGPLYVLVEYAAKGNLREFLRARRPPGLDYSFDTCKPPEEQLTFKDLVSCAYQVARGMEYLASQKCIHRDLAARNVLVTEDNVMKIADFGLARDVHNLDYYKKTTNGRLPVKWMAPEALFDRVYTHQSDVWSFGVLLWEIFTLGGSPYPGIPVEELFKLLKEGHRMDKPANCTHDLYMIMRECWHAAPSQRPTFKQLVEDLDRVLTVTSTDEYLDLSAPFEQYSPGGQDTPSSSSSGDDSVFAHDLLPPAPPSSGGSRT
T4 sequence (P22455 22-802): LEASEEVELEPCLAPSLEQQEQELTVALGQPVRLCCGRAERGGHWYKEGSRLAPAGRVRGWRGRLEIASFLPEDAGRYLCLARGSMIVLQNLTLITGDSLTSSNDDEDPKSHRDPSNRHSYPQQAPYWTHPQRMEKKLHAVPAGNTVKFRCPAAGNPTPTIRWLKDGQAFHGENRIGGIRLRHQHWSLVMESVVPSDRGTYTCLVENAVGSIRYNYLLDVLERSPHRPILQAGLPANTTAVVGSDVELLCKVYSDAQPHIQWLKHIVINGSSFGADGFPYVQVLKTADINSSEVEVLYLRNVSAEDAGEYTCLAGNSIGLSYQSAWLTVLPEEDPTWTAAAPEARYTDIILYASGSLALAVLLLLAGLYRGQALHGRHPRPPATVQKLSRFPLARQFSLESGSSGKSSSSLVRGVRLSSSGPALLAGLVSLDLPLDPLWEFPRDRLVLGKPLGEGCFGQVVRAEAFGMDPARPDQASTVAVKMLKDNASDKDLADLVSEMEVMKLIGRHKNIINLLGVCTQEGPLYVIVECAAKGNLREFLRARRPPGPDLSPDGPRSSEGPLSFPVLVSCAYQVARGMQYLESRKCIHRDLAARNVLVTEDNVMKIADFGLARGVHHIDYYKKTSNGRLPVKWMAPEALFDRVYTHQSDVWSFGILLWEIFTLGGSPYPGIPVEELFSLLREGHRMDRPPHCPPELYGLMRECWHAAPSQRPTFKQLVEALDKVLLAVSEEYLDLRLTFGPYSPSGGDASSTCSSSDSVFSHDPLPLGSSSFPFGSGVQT
T5 sequence (P21802 22-821): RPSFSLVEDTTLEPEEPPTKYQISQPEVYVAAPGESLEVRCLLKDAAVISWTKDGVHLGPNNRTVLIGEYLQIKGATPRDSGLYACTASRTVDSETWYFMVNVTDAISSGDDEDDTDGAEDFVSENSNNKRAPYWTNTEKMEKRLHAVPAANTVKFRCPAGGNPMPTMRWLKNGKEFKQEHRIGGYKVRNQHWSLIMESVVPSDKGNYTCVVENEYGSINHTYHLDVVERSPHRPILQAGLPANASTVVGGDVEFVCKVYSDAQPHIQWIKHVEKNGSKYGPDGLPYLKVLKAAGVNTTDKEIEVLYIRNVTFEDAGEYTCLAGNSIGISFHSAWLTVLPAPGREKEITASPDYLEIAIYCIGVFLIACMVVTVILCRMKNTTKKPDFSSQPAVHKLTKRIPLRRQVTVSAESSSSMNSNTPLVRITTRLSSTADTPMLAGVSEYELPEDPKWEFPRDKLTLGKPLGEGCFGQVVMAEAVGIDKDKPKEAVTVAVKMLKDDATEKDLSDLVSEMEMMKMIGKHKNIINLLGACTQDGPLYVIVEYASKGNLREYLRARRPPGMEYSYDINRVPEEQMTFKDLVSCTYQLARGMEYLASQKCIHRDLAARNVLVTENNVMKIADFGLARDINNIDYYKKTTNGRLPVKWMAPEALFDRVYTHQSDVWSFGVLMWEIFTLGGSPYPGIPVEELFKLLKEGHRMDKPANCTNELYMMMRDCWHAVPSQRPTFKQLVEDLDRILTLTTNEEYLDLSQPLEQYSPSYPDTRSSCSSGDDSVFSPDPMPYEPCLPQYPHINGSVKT
T2 sequence (P11362 22-822): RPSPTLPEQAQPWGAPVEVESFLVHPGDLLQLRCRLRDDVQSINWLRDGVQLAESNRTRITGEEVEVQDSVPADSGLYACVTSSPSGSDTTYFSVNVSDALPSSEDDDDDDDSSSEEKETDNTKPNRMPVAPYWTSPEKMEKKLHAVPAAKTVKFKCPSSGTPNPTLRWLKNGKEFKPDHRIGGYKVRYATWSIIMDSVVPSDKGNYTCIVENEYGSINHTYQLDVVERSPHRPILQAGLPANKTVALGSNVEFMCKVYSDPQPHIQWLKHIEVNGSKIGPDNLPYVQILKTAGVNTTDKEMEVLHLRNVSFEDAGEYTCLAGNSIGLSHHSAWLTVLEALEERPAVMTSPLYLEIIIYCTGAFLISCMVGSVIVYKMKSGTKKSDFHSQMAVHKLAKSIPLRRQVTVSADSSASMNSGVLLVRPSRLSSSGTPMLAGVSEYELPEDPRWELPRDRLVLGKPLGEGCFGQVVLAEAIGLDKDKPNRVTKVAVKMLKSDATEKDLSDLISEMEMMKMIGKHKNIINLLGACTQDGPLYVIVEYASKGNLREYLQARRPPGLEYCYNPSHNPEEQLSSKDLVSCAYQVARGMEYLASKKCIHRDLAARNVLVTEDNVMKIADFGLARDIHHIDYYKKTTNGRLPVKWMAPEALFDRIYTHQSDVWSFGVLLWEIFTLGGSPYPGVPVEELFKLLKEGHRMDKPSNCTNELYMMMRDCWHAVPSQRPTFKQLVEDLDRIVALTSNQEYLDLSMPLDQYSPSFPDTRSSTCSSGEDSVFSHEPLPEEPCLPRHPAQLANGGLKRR
T3 sequence (P22607 23-806 V555M): as the sequence (P22607 23-806) above, with V533M counted along it

SMILES | Kd [1] | Kd [2] | Kd [3] | Kd [4] | Kd [5] | IC50 [6] | IC50 [7] | IC50 [8]
C[C@@H](Oc1ccc2[nH]nc(-c3ccc(N4CC(C)(OCC(C)(C)O)C4)nc3)c2c1)c1c(Cl)cncc1Cl [Example 93, (R)-1-((1-(5-(5-(1-(3,5-dichloropyridin-4-yl)ethoxy)-1H-indazol-3-yl)pyridin-2-yl)-3-methylazetidin-3-yl)oxy)-2-methylpropan-2-ol] | 1 to 50 nM | 1 to 50 nM | 1 to 50 nM | 1 to 50 nM | 1 to 50 nM | 0.1 to 50 nM | 50 to 200 nM | 0.1 to 50 nM
C[C@@H](Oc1ccc2[nH]nc(-c3ccc(N4CC(C)(NC(=O)CN(C)C)C4)nc3)c2c1)c1c(Cl)cncc1Cl [Example 95, (R)-N-(1-(5-(5-(1-(3,5-dichloropyridin-4-yl)ethoxy)-1H-indazol-3-yl)pyridin-2-yl)-3-methylazetidin-3-yl)-2-(dimethylamino)acetamide] | 1 to 50 nM | 1 to 50 nM | 1 to 50 nM | 1 to 50 nM | 1 to 50 nM | 0.1 to 50 nM | 0.1 to 50 nM | 0.1 to 50 nM
C[C@@H](Oc1ccc2[nH]nc(-c3cnc(N4CC(C)(N5CC(C)(O)C5)C4)c(F)c3)c2c1)c1c(Cl)cncc1Cl [Example 96, (R)-1′-(5-(5-(1-(3,5-dichloropyridin-4-yl)ethoxy)-1H-indazol-3-yl)-3-fluoropyridin-2-yl)-3,3′-dimethyl-[1,3′-biazetidin]-3-ol] | 1 to 50 nM | 1 to 50 nM | 1 to 50 nM | 1 to 50 nM | 1 to 50 nM | 0.1 to 50 nM | 0.1 to 50 nM | 0.1 to 50 nM
COC1(C)CN(C2(C)CN(c3ncc(-c4n[nH]c5ccc(O[C@H](C)c6c(Cl)cncc6Cl)cc45)cc3F)C2)C1 [Example 97, (R)-5-(1-(3,5-dichloropyridin-4-yl)ethoxy)-3-(5-fluoro-6-(3-methoxy-3,3′-dimethyl-[1,3′-biazetidin]-1′-yl)pyridin-3-yl)-1H-indazole] | 1 to 50 nM | 1 to 50 nM | 1 to 50 nM | 1 to 50 nM | 1 to 50 nM | 0.1 to 50 nM | 50 to 200 nM | 0.1 to 50 nM
C[C@@H](Oc1ccc2[nH]nc(-c3cnc(N4CC(C)(N5CCC5)C4)c(F)c3)c2c1)c1c(Cl)cncc1Cl [Example 103, (R)-5-(1-(3,5-dichloropyridin-4-yl)ethoxy)-3-(5-fluoro-6-(3′-methyl-[1,3′-biazetidin]-1′-yl)pyridin-3-yl)-1H-indazole] | 1 to 50 nM | 1 to 50 nM | 1 to 50 nM | 1 to 50 nM | 1 to 50 nM | 0.1 to 50 nM | 0.1 to 50 nM | 0.1 to 50 nM
CC(C)NCC1(C)CN(c2ncc(-c3n[nH]c4ccc(O[C@H](C)c5c(Cl)cncc5Cl)cc34)cc2F)C1 [Example 108, (R)-N-((1-(5-(5-(1-(3,5-dichloropyridin-4-yl)ethoxy)-1H-indazol-3-yl)-3-fluoropyridin-2-yl)-3-methylazetidin-3-yl)methyl)propan-2-amine] | 1 to 50 nM | 1 to 50 nM | 1 to 50 nM | 1 to 50 nM | 1 to 50 nM | 0.1 to 50 nM | 0.1 to 50 nM | 0.1 to 50 nM
C[C@@H](Oc1ccc2[nH]nc(-c3cnc(N4CC(C)(CN5CCOCC5)C4)c(F)c3)c2c1)c1c(Cl)cncc1Cl [Example 109, (R)-4-((1-(5-(5-(1-(3,5-dichloropyridin-4-yl)ethoxy)-1H-indazol-3-yl)-3-fluoropyridin-2-yl)-3-methylazetidin-3-yl)methyl)morpholine] | 1 to 50 nM | 1 to 50 nM | 1 to 50 nM | 1 to 50 nM | 1 to 50 nM | 50 to 200 nM | 50 to 200 nM | 0.1 to 50 nM
C[C@@H](Oc1ccc2[nH]nc(-c3cnc(N4CC(C)(CN5CCCC5)C4)c(F)c3)c2c1)c1c(Cl)cncc1Cl [Example 110, (R)-5-(1-(3,5-dichloropyridin-4-yl)ethoxy)-3-(5-fluoro-6-(3-methyl-3-(pyrrolidin-1-ylmethyl)azetidin-1-yl)pyridin-3-yl)-1H-indazole] | 1 to 50 nM | 1 to 50 nM | 1 to 50 nM | 1 to 50 nM | 1 to 50 nM | 0.1 to 50 nM | 0.1 to 50 nM | 0.1 to 50 nM
C[C@@H](Oc1ccc2[nH]nc(-c3cnc(N4CC(C)(N5CC(C)(C)C5)C4)c(F)c3)c2c1)c1c(Cl)cncc1Cl [Example 111, (R)-5-(1-(3,5-dichloropyridin-4-yl)ethoxy)-3-(5-fluoro-6-(3,3,3′-trimethyl-[1,3′-biazetidin]-1′-yl)pyridin-3-yl)-1H-indazole] | 1 to 50 nM | 1 to 50 nM | 1 to 50 nM | 1 to 50 nM | 1 to 50 nM | 0.1 to 50 nM | 50 to 200 nM | 0.1 to 50 nM
C[C@H](O)CNC1(C)CN(c2ncc(-c3n[nH]c4ccc(O[C@H](C)c5c(Cl)cncc5Cl)cc34)cc2F)C1 [Example 112, (S)-1-((1-(5-(5-((R)-1-(3,5-dichloropyridin-4-yl)ethoxy)-1H-indazol-3-yl)-3-fluoropyridin-2-yl)-3-methylazetidin-3-yl)amino)propan-2-ol] | 1 to 50 nM | 1 to 50 nM | 1 to 50 nM | 1 to 50 nM | 1 to 50 nM | 0.1 to 50 nM | 0.1 to 50 nM | 0.1 to 50 nM
C[C@@H](Oc1ccc2[nH]nc(-c3cnc(N4CC(C)(NCC(C)(C)O)C4)c(F)c3)c2c1)c1c(Cl)cncc1Cl [Example 113, (R)-1-((1-(5-(5-(1-(3,5-dichloropyridin-4-yl)ethoxy)-1H-indazol-3-yl)-3-fluoropyridin-2-yl)-3-methylazetidin-3-yl)amino)-2-methylpropan-2-ol] | 1 to 50 nM | 1 to 50 nM | 1 to 50 nM | 1 to 50 nM | 1 to 50 nM | 0.1 to 50 nM | 50 to 200 nM | 0.1 to 50 nM
C[C@@H](Oc1ccc2[nH]nc(-c3cnc(N4CC(C)(NCCO)C4)c(F)c3)c2c1)c1c(Cl)cncc1Cl [Example 114, (R)-2-((1-(5-(5-(1-(3,5-dichloropyridin-4-yl)ethoxy)-1H-indazol-3-yl)-3-fluoropyridin-2-yl)-3-methylazetidin-3-yl)amino)ethan-1-ol] | 1 to 50 nM | 1 to 50 nM | 1 to 50 nM | 1 to 50 nM | 1 to 50 nM | 0.1 to 50 nM | 0.1 to 50 nM | 0.1 to 50 nM
C[C@@H](Oc1ccc2[nH]nc(-c3ccc(N4CC(C)(NCC(C)(C)O)C4)nc3)c2c1)c1c(Cl)cncc1Cl [Example 115, (R)-1-((1-(5-(5-(1-(3,5-dichloropyridin-4-yl)ethoxy)-1H-indazol-3-yl)pyridin-2-yl)-3-methylazetidin-3-yl)amino)-2-methylpropan-2-ol] | 1 to 50 nM | 1 to 50 nM | 1 to 50 nM | 1 to 50 nM | 1 to 50 nM | 0.1 to 50 nM | 0.1 to 50 nM | 0.1 to 50 nM
C[C@@H](Oc1ccc2[nH]nc(-c3ccc(N4CC(C)(N5CCC5)C4)nc3)c2c1)c1c(Cl)cncc1Cl [Example 116, 3-[6-[3-(azetidin-1-yl)-3-methyl-azetidin-1-yl]-3-pyridyl]-5-[(1R)-1-(3,5-dichloro-4-pyridyl)ethoxy]-1H-indazole] | 1 to 50 nM | 1 to 50 nM | 1 to 50 nM | 1 to 50 nM | 1 to 50 nM | 0.1 to 50 nM | 0.1 to 50 nM | 0.1 to 50 nM
CC(C)NC1(C)CN(c2ncc(-c3n[nH]c4ccc(O[C@H](C)c5c(Cl)cncc5Cl)cc34)cc2F)C1 [Example 117, (R)-1-(5-(5-(1-(3,5-dichloropyridin-4-yl)ethoxy)-1H-indazol-3-yl)-3-fluoropyridin-2-yl)-N-isopropyl-3-methylazetidin-3-amine] | 1 to 50 nM | 1 to 50 nM | 1 to 50 nM | 1 to 50 nM | 1 to 50 nM | 50 to 200 nM | 50 to 200 nM | 0.1 to 50 nM
C[C@@H](Oc1ccc2[nH]nc(-c3cnc(N4CC(C)(NCC5(O)CC5)C4)c(F)c3)c2c1)c1c(Cl)cncc1Cl [Example 118, (R)-1-(((1-(5-(5-(1-(3,5-dichloropyridin-4-yl)ethoxy)-1H-indazol-3-yl)-3-fluoropyridin-2-yl)-3-methylazetidin-3-yl)amino)methyl)cyclo-propan-1-ol] | 1 to 50 nM | 1 to 50 nM | 1 to 50 nM | 1 to 50 nM | 1 to 50 nM | 0.1 to 50 nM | 0.1 to 50 nM | 0.1 to 50 nM
